In patent US20040132996A1, “Method for preparation of ceftiofur and salts thereof” (LUPIN LIMITED, priority 2002, published 2004):

Assay: Storage stability of the product at 40° ± 2° C. for 90 days (drop in assay)
Format: physicochemical
Details: for Storage Stability: assay after storage: after 90 days at 40° ± 2° C.; for Storage Stability: assay at start: before storage at 40° ± 2° C.; for storage stability (statement in words): product obtained by the process of the invention

Structure (SMILES)	Storage Stability: assay after storage	Storage Stability: assay at start	storage stability (statement in words)	Storage Stability (90 days at 40° ± 2° C.)
CO/N=C(\C(=O)N[C@@H]1C(=O)N2C(C(=O)[O-])=C(CSC(=O)c3ccco3)CS[C@H]12)c1csc(N)n1.[Na+] [ceftiofur sodium (Ib)]	87%	94%	high storage stability	
CO/N=C(\C(=O)N[C@@H]1C(=O)N2C(C(=O)O)=C(CSC(=O)c3ccco3)CS[C@H]12)c1csc(N)n1 [ceftiofur (Ia)]	92%	97%	high storage stability	Stable for 90 days at 40° ± 2 °C with a
